Data set [1] is described as follows: Solubility in water, methanol and isopropanol. The data set is classed as physicochemical.
Description: The solubility in water, methanol, and isopropanol of the compounds of the present disclosure and the comparative compounds were measured separately.
The test system of data set [2] is histamine-induced asthma in guinea pigs. Nature of the data set: Antiasthmatic effect on histamine-induced asthma in guinea pigs. The data set is classed as in vivo, guinea pig. The conditions noted are these: 60 min after 1 mg/kg oral gavage; histamine hydrochloride spray; no asthma within 8 min counted as 8 min; X ± s, n = 5. How it is done:
The time point at which the guinea pigs developed asthma was recorded. The time of convulsion and fall was taken as the latency period. Guinea pigs with a latency period exceeding 180 seconds were not selected. […] The guinea pigs were administered by oral gavage at a dose of 2 mL/kg·bw. Sixty minutes after the administration, the guinea pigs were placed in bell jars, and histamine hydrochloride solution was sprayed under the same conditions as in the previous selection. The latency period for the onset of asthma was recorded. […] The results were processed statistically.

The test system of data set [3] is isolated ileal smooth muscle of guinea pigs. Nature of the data set: Muscle tone of isolated ileal smooth muscle of guinea pigs (compound alone). Further details: species or system guinea pig. To be noted: 5 minutes after adding drug, no histamine; X ± s, n = 8. As for the experimental part: (§1) The guinea pig was knocked unconscious with a wooden stick, and the abdomen was immediately dissected to separate the ileum about 15 cm in length. The contents of the intestinal segment were flushed with Tyrode's solution and placed in Tyrode's solution at a constant temperature of 37° C. for later use, and oxygen was supplied simultaneously. The experimental intestinal tract (1 cm in length) was cut and placed into 20 ml of Tyrode's solution at a constant temperature of 37° C. with a continuous oxygen supply. One end of the intestine was fixed on the ventilation hook and the other end was connected to the muscle tone transducer and led to the computer interface. The muscle tone value of the ileal smooth muscle was recorded with a BL system. The experiment was carried out after the intestinal segment contraction became stable. […] The operation was repeated 8 times. The antispasmodic percentage was calculated according to the following formula. [formula]

A short description of data set [4]: Accelerated stability test. The format is physicochemical. To be noted: 40° C.±2° C., RH 75%±5%. As for the experimental part:
The compound of the present disclosure was placed at a temperature of 40° C.±2° C. and a relative humidity of 75%±5% for 6 months, and samples were taken to determine for the descriptions, related substances, and contents.

Data set [5] relates to histamine-contracted isolated ileal smooth muscle of guinea pigs. Nature of the data set: Muscle tone of isolated ileal smooth muscle of guinea pigs contracted with histamine. Further details: species or system guinea pig. The conditions noted are these: 3 minutes after adding 0.05 mL compound to histamine-contracted ileum; x ± s, n = 8. How it is done:
as §1, with “using” for “according to”, “equation.” for “formula. [formula]”

[6] abbreviates: organic solvent or mixture, solvent isopropanol, read-out: Solubility, Isopropanol.
Where [7] appears, read: organic solvent or mixture, solvent methanol, read-out: Solubility, Methanol.
[8] abbreviates: water, solvent water, read-out: Solubility, Water.
[9] abbreviates: methanol, organic solvent or mixture, solvent methanol, read-out: Solubility, Methanol.
[10] abbreviates: isopropanol, organic solvent or mixture, solvent isopropanol, read-out: Solubility, Isopropanol.

These results are taken from US20260274875A1, “[…] COMPOUNDS, PREPARATION METHOD AND USE THEREOF” (HC SYNTHETIC PHARMACEUTICAL CO., LTD., priority 2022, published 2026).

Molecules are shown by their SMILES. In brackets after ≈: the same amount, converted by molar mass. Where two headings read alike, the source gives them in different places.

What is called solubility is how much of the substance goes into solution per volume. Regarding `O=P(O)(O)OCCN1CCC(=C2c3ccc(Cl)cc3CCc3cccnc32)CC1` [Compound III-4], the solubility in data set [1] (setting [6]) was found to be 22 mg/mL (≈ 50.6 mM); in data set [1] (setting [7]), 38 mg/mL (≈ 87.4 mM); in data set [1] (setting [8]), 28 mg/mL (≈ 64.4 mM).
As for `O=P(O)(O)OCCN1CCC(=C2c3ccc(F)cc3CCc3cccnc32)CC1` [Compound III-5], the solubility in data set [1] (setting [6]) was determined as 22 mg/mL (≈ 52.6 mM); in data set [1] (setting [7]), 40 mg/mL (≈ 95.6 mM); in data set [1] (setting [8]), 28 mg/mL (≈ 66.9 mM).
On to `O=P(O)(O)OCCN1CCC(=C2c3ccc(Br)cc3CCc3cccnc32)CC1` [Compound III-6], for which the solubility in data set [1] (setting [6]) was 22 mg/mL (≈ 45.9 mM); in data set [1] (setting [7]), 40 mg/mL (≈ 83.5 mM); in data set [1] (setting [8]) it was 28 mg/mL (≈ 58.4 mM).
Regarding `O=P(O)(O)OCCCN1CCC(=C2c3ccc(Cl)cc3CCc3cccnc32)CC1` [Compound III-7], the solubility is 40 mg/mL (≈ 89.1 mM) in data set [1] (setting [9]) and 30 mg/mL (≈ 66.8 mM) in data set [1] (setting [8]).
For the compound `O=P(O)(O)OCCCN1CCC(=C2c3ccc(F)cc3CCc3cccnc32)CC1` [Compound III-8], the solubility in data set [1] (setting [10]) was 22 mg/mL (≈ 50.9 mM); in data set [1] (setting [9]), 40 mg/mL (≈ 92.5 mM); in data set [1] (setting [8]) it was 30 mg/mL (≈ 69.4 mM). The “Post-administration latency period” value in data set [2] came to 370.94 ± 50.29 s.
On to `O=P(O)(O)OCCCN1CCC(=C2c3ccc(Br)cc3CCc3cccnc32)CC1` [Compound III-9], for which the solubility stood at 22 mg/mL (≈ 44.6 mM) in data set [1] (setting [10]), 40 mg/mL (≈ 81.1 mM) in data set [1] (setting [9]) and 30 mg/mL (≈ 60.8 mM) in data set [1] (setting [8]).
As to `O=P(O)(O)OCCCCN1CCC(=C2c3ccc(Cl)cc3CCc3cccnc32)CC1` [Compound III-10], the solubility turned out to be 43 mg/mL (≈ 92.9 mM) in data set [1] (setting [9]) and 30 mg/mL (≈ 64.8 mM) in data set [1] (setting [8]). For the same compound, the “Antispasmodic percentage (%)” value in data set [3] is recorded as 35.75 ± 19.99%.
With `O=P(O)(O)OCCCCN1CCC(=C2c3ccc(F)cc3CCc3cccnc32)CC1` [Compound III-11], the solubility in data set [1] (setting [10]) was found to be 25 mg/mL (≈ 56 mM); in data set [1] (setting [9]) it was 43 mg/mL (≈ 96.3 mM); in data set [1] (setting [8]), 30 mg/mL (≈ 67.2 mM). In addition, in data set [3], the “Antispasmodic percentage (%)” value is on record as 31.58 ± 18.30%.
Turning to `O=P(O)(O)OCCCCN1CCC(=C2c3ccc(Br)cc3CCc3cccnc32)CC1` [Compound III-12], the solubility in data set [1] (setting [10]) was determined as 25 mg/mL (≈ 49.3 mM); in data set [1] (setting [9]), 43 mg/mL (≈ 84.8 mM); in data set [1] (setting [8]), 32 mg/mL (≈ 63.1 mM).
`O=P(O)(O)OCCCCCN1CCC(=C2c3ccc(Cl)cc3CCc3cccnc32)CC1` [Compound III-13]: the figures for the solubility in data set [1] (setting [9]) and in data set [1] (setting [8]) were 44 mg/mL (≈ 92.3 mM) and 32 mg/mL (≈ 67.1 mM), respectively.
For `O=P(O)(O)OCCCCCN1CCC(=C2c3ccc(F)cc3CCc3cccnc32)CC1` [Compound III-14], the solubility in data set [1] (setting [10]) stood at 25 mg/mL (≈ 54.3 mM); in data set [1] (setting [9]), 44 mg/mL (≈ 95.6 mM); in data set [1] (setting [8]), 32 mg/mL (≈ 69.5 mM). Also, the Content in data set [4] (Month 2) and in data set [4] (Month 3) was 99.5% throughout.
Consider `O=P(O)(O)OCCCCCN1CCC(=C2c3ccc(Br)cc3CCc3cccnc32)CC1` [Compound III-15], for which the solubility was determined as 25 mg/mL (≈ 47.9 mM) in data set [1] (setting [10]), 44 mg/mL (≈ 84.4 mM) in data set [1] (setting [9]) and 32 mg/mL (≈ 61.4 mM) in data set [1] (setting [8]).
Take `O=P(O)(O)OCOCCCN1CCC(=C2c3ccc(Cl)cc3CCc3cccnc32)CC1` [Compound III-17]: the solubility was determined as 25 mg/mL (≈ 52.2 mM) in data set [1] (setting [10]), 42 mg/mL (≈ 87.7 mM) in data set [1] (setting [9]) and 30 mg/mL (≈ 62.6 mM) in data set [1] (setting [8]).
As for `O=P(O)(O)OCOCCCCN1CCC(=C2c3ccc(Cl)cc3CCc3cccnc32)CC1` [Compound III-18], the solubility came to 25 mg/mL (≈ 50.7 mM) in data set [1] (setting [10]), 42 mg/mL (≈ 85.2 mM) in data set [1] (setting [9]) and 30 mg/mL (≈ 60.9 mM) in data set [1] (setting [8]). Moreover, in data set [4] (Month 3), the Content stood at 99.5%.
As for `O=P(O)(O)OCOCCCCCN1CCC(=C2c3ccc(Cl)cc3CCc3cccnc32)CC1` [Compound III-19], the solubility in data set [1] (setting [10]) was 25 mg/mL (≈ 49.3 mM); in data set [1] (setting [9]), 42 mg/mL (≈ 82.8 mM); in data set [1] (setting [8]), 30 mg/mL (≈ 59.2 mM).
Turning to `O=P([O-])([O-])OCN1CCC(=C2c3ccc(Cl)cc3CCc3cccnc32)CC1.[Na+].[Na+]` [Compound IV-1], the values for the solubility in data set [1] (setting [9]) and in data set [1] (setting [8]) were 44 mg/mL and 432 mg/mL, respectively.
In the case of `O=P([O-])([O-])OCCN1CCC(=C2c3ccc(Cl)cc3CCc3cccnc32)CC1.[K+].[K+]` [Compound IV-2], the solubility in data set [1] (setting [10]) was determined as 1 mg/mL; in data set [1] (setting [9]), 23 mg/mL; in data set [1] (setting [8]), 389 mg/mL. Moreover, the Content in data set [4] (Month 1) was determined as 99.6%; in data set [4] (Month 3), 99.5%.
In the case of `O=P([O-])([O-])OCCCCN1CCC(=C2c3ccc(Cl)cc3CCc3cccnc32)CC1.[Na+].[Na+]` [Compound IV-4], the solubility in data set [1] (setting [10]) amounted to 1 mg/mL; in data set [1] (setting [9]), 20 mg/mL. Besides, the Content in data set [4] (Month 1), in data set [4] (Month 2) and in data set [4] (Month 3) was 99.6% each time.
Regarding `O=P(O)(O)OCCCCCN1CCC(=C2c3ccc(Cl)cc3CCc3cccnc32)CC1` [Compound IV-7], in data set [4] (Month 3), the Content is recorded as 99.5%.
Turning to `O=P(O)(O)OCOCCN1CCC(=C2c3ccc(Cl)cc3CCc3cccnc32)CC1` [Compound IV-8], in data set [5], the “Smooth muscle tone (g) After administration” value came out at 1.19 ± 0.28 g. In data set [4] (Month 3), this compound came in with a Content of 99.5%.
With `O=P([O-])([O-])OCOCCCN1CCC(=C2c3ccc(Cl)cc3CCc3cccnc32)CC1.[Na+].[Na+]` [Compound IV-9], the figures for the solubility in data set [1] (setting [10]), in data set [1] (setting [9]) and in data set [1] (setting [8]) were 2 mg/mL, 27 mg/mL and 411 mg/mL, respectively. For the same compound, the Content in data set [4] (Month 1), in data set [4] (Month 2) and in data set [4] (Month 3) was 99.7% each time.
On to `O=P([O-])([O-])OCOCCCCN1CCC(=C2c3ccc(Cl)cc3CCc3cccnc32)CC1.[Na+].[Na+]` [Compound IV-10], for which the solubility in data set [1] (setting [10]) amounted to 2 mg/mL; in data set [1] (setting [9]), 27 mg/mL; in data set [1] (setting [8]), 401 mg/mL.
With `O=P([O-])([O-])OCOCCCCCN1CCC(=C2c3ccc(Cl)cc3CCc3cccnc32)CC1.[Na+].[Na+]` [Compound IV-11], the solubility in data set [1] (setting [10]) was found to be 2 mg/mL; in data set [1] (setting [9]) it was 27 mg/mL; in data set [1] (setting [8]) it was 390 mg/mL. Also, in data set [5], the “Smooth muscle tone (g) After administration” value came out at 1.18 ± 0.28 g.
On to `OCCCCCCN1CCC(=C2c3ccc(Cl)cc3CCc3cccnc32)CC1` [Hydroxyhexyl desloratadine, Hydroxyhexyl Desloratadine], for which the “Antispasmodic percentage (%)” value in data set [5] amounted to 58.30 ± 14.11%.
With `OCCCCCN1CCC(=C2c3ccc(Cl)cc3CCc3cccnc32)CC1` [Hydroxypentyl desloratadine, Hydroxypentyl Desloratadine], in data set [5], the “Antispasmodic percentage (%)” value came out at 58.53 ± 12.34%.
Same read-out and setting: the figure for `OCCCN1CCC(=C2c3ccc(Cl)cc3CCc3cccnc32)CC1` [Hydroxypropyl desloratadine, Hydroxypropyl Desloratadine] is 58.77 ± 13.82%.
